Measured values published in PubChem BioAssay AID1918993 (Molecular Pharmacology Branch, DTP, NCI, 2023).

System: 233499-124-R-J3-PDC complex spheroid growth
Experiment: Anticancer human tumor 233499-124-R-J3-PDC patient-derived colon adenocarcinoma cell line growth inhibition [AhR]
Conditions: for IC50: curve of first compound; for viability, T/C: stronger effect = lower value; active = viability on the fitted dose curve at most 10% of control; inactive = the rest
Summary of the method: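 Complex tumor spheroids co-cultured with HUVEC and human MSC stroma; AhR antagonists tested in combination with standard-of-care and investigational agents. Top concentration at or near clinical Cmax (else 10 microM), half-log dilutions; growth expressed as percent test/control.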

[1] = second compound 0.1 µM, first compound 0.0316 µM
[2] = second compound 0.1 µM, first compound 0.1 µM
[3] = second compound 0.1 µM, first compound 0.316 µM
[4] = second compound 0.1 µM, first compound 1 µM
[5] = second compound 0.1 µM, first compound 3.16 µM
[6] = second compound 0.1 µM, first compound 10 µM
[7] = second compound 0.316 µM, first compound 0.0316 µM
[8] = second compound 0.316 µM, first compound 0.1 µM
[9] = second compound 0.316 µM, first compound 0.316 µM
[10] = second compound 0.316 µM, first compound 1 µM
[11] = second compound 0.316 µM, first compound 3.16 µM
[12] = second compound 0.316 µM, first compound 10 µM
[13] = second compound 1 µM, first compound 0.0316 µM
[14] = second compound 1 µM, first compound 0.1 µM
[15] = second compound 1 µM, first compound 0.316 µM
[16] = second compound 1 µM, first compound 1 µM
[17] = second compound 1 µM, first compound 3.16 µM
[18] = second compound 1 µM, first compound 10 µM
[19] = second compound 3.16 µM, first compound 0.0316 µM
[20] = second compound 3.16 µM, first compound 0.1 µM
[21] = second compound 3.16 µM, first compound 0.316 µM
[22] = second compound 3.16 µM, first compound 1 µM
[23] = second compound 3.16 µM, first compound 3.16 µM
[24] = second compound 3.16 µM, first compound 10 µM
[25] = second compound 10 µM, first compound 0.0316 µM
[26] = second compound 10 µM, first compound 0.1 µM
[27] = second compound 10 µM, first compound 0.316 µM
[28] = second compound 10 µM, first compound 1 µM
[29] = second compound 10 µM, first compound 3.16 µM
[30] = second compound 10 µM, first compound 10 µM
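Note: spheroids exposed to agents for seven days before reading.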

CC1(C)CCC(CN2CCN(c3ccc(C(=O)NS(=O)(=O)c4ccc(NCC5CCOCC5)c([N+](=O)[O-])c4)c(Oc4cnc5[nH]ccc5c4)c3)CC2)=C(c2ccc(Cl)cc2)C1 + Cc1cncc(-c2nc(NCCc3c[nH]c4ccccc34)c3ncn(C(C)C)c3n2)c1
> 10000 nM: IC50 (second compound 0.1 µM) | IC50 (second compound 0.316 µM) | IC50 (second compound 1 µM) | IC50 (second compound 3.16 µM)
< 31.6 nM: IC50 (second compound 10 µM)
inactive: viability, T/C [1] 103% | viability, T/C [2] 97.9% | viability, T/C [3] 92.6% | viability, T/C [4] 104% | viability, T/C [5] 100% | viability, T/C [6] 109% | viability, T/C [7] 82% | viability, T/C [8] 95% | viability, T/C [9] 88.2% | viability, T/C [10] 95.7% | viability, T/C [11] 96.8% | viability, T/C [12] 96.3% | viability, T/C [13] 94.6% | viability, T/C [14] 84.2% | viability, T/C [15] 85.8% | viability, T/C [16] 82% | viability, T/C [17] 85.2% | viability, T/C [18] 89.3% | viability, T/C [19] 71.6% | viability, T/C [20] 68.5% | viability, T/C [21] 76.5% | viability, T/C [22] 63.5% | viability, T/C [23] 70.3% | viability, T/C [24] 81.7% | viability, T/C [25] 12% | viability, T/C [26] 9.79% | viability, T/C [27] 7.48% | viability, T/C [28] 23.7% | viability, T/C [29] 8.38% | viability, T/C [30] 15.6%

CCN(c1cc(-c2ccc(CN3CCOCC3)cc2)cc(C(=O)NCc2c(C)cc(C)[nH]c2=O)c1C)C1CCOCC1 + Cc1cncc(-c2nc(NCCc3c[nH]c4ccccc34)c3ncn(C(C)C)c3n2)c1
inactive: viability, T/C (second compound 0.1 µM, first compound 0.00949 µM) 99.1% | viability, T/C (second compound 0.1 µM, first compound 0.03 µM) 101% | viability, T/C (second compound 0.1 µM, first compound 0.0949 µM) 76% | viability, T/C (second compound 0.1 µM, first compound 0.3 µM) 82.3% | viability, T/C (second compound 0.1 µM, first compound 0.949 µM) 95.6% | viability, T/C (second compound 0.1 µM, first compound 3 µM) 90.3% | viability, T/C (second compound 0.316 µM, first compound 0.00949 µM) 108% | viability, T/C (second compound 0.316 µM, first compound 0.03 µM) 109% | viability, T/C (second compound 0.316 µM, first compound 0.0949 µM) 94.6% | viability, T/C (second compound 0.316 µM, first compound 0.3 µM) 100% | viability, T/C (second compound 0.316 µM, first compound 0.949 µM) 106% | viability, T/C (second compound 0.316 µM, first compound 3 µM) 94.6% | viability, T/C (second compound 1 µM, first compound 0.00949 µM) 80.3% | viability, T/C (second compound 1 µM, first compound 0.03 µM) 79.6% | viability, T/C (second compound 1 µM, first compound 0.0949 µM) 75.7% | viability, T/C (second compound 1 µM, first compound 0.3 µM) 78.6% | viability, T/C (second compound 1 µM, first compound 0.949 µM) 80.5% | viability, T/C (second compound 1 µM, first compound 3 µM) 84% | viability, T/C (second compound 3.16 µM, first compound 0.00949 µM) 76.4% | viability, T/C (second compound 3.16 µM, first compound 0.03 µM) 76.9% | viability, T/C (second compound 3.16 µM, first compound 0.0949 µM) 82.4% | viability, T/C (second compound 3.16 µM, first compound 0.3 µM) 89.5% | viability, T/C (second compound 3.16 µM, first compound 0.949 µM) 73.2% | viability, T/C (second compound 3.16 µM, first compound 3 µM) 76% | viability, T/C (second compound 10 µM, first compound 0.00949 µM) 16.1% | viability, T/C (second compound 10 µM, first compound 0.03 µM) 21% | viability, T/C (second compound 10 µM, first compound 0.0949 µM) 9.73% | viability, T/C (second compound 10 µM, first compound 0.3 µM) 10.7%
> 3000 nM: IC50 (second compound 0.1 µM) | IC50 (second compound 0.316 µM) | IC50 (second compound 1 µM) | IC50 (second compound 3.16 µM)
< 9.49 nM: IC50 (second compound 10 µM)
active: viability, T/C (second compound 10 µM, first compound 0.949 µM) 16.7% | viability, T/C (second compound 10 µM, first compound 3 µM) 3.73%

Cn1ncnc1C1c2n[nH]c(=O)c3cc(F)cc(c23)NC1c1ccc(F)cc1 (stereo not given) + Cc1cncc(-c2nc(NCCc3c[nH]c4ccccc34)c3ncn(C(C)C)c3n2)c1
< 0.316 nM: IC50 (second compound 10 µM)
inactive: viability, T/C (second compound 0.1 µM, first compound 0.000316 µM) 93.4% | viability, T/C (second compound 0.1 µM, first compound 0.001 µM) 97.3% | viability, T/C (second compound 0.1 µM, first compound 0.00316 µM) 109% | viability, T/C (second compound 0.1 µM, first compound 0.01 µM) 108% | viability, T/C [1] 88.7% | viability, T/C [2] 101% | viability, T/C (second compound 0.316 µM, first compound 0.000316 µM) 88.7% | viability, T/C (second compound 0.316 µM, first compound 0.001 µM) 81.3% | viability, T/C (second compound 0.316 µM, first compound 0.00316 µM) 93.5% | viability, T/C (second compound 0.316 µM, first compound 0.01 µM) 87.3% | viability, T/C [7] 78.3% | viability, T/C [8] 96.2% | viability, T/C (second compound 1 µM, first compound 0.000316 µM) 79.4% | viability, T/C (second compound 1 µM, first compound 0.001 µM) 75.9% | viability, T/C (second compound 1 µM, first compound 0.00316 µM) 78.8% | viability, T/C (second compound 1 µM, first compound 0.01 µM) 78% | viability, T/C [13] 76.5% | viability, T/C [14] 91.4% | viability, T/C (second compound 3.16 µM, first compound 0.000316 µM) 84.4% | viability, T/C (second compound 3.16 µM, first compound 0.001 µM) 81.2% | viability, T/C (second compound 3.16 µM, first compound 0.00316 µM) 73.2% | viability, T/C (second compound 3.16 µM, first compound 0.01 µM) 66.6% | viability, T/C [19] 76.1% | viability, T/C [20] 71.3% | viability, T/C (second compound 10 µM, first compound 0.000316 µM) 23.2% | viability, T/C (second compound 10 µM, first compound 0.001 µM) 13.3% | viability, T/C (second compound 10 µM, first compound 0.00316 µM) 23.2% | viability, T/C (second compound 10 µM, first compound 0.01 µM) 26.1% | viability, T/C [25] 14.8% | viability, T/C [26] 18.6%
> 100 nM: IC50 (second compound 0.1 µM) | IC50 (second compound 0.316 µM) | IC50 (second compound 1 µM) | IC50 (second compound 3.16 µM)

NS(=O)(=O)OCC1CC(n2ccc3c(NC4CCc5ccccc54)ncnc32)CC1O (stereo not given) + Cc1cncc(-c2nc(NCCc3c[nH]c4ccccc34)c3ncn(C(C)C)c3n2)c1
< 31.6 nM: IC50 (second compound 10 µM)
inactive: viability, T/C [1] 98.7% | viability, T/C [2] 107% | viability, T/C [3] 98.2% | viability, T/C [4] 16.1% | viability, T/C [7] 103% | viability, T/C [8] 101% | viability, T/C [9] 81.4% | viability, T/C [13] 102% | viability, T/C [14] 79.7% | viability, T/C [15] 83.1% | viability, T/C [19] 93.6% | viability, T/C [20] 74.9% | viability, T/C [21] 35.1% | viability, T/C [25] 20.5% | viability, T/C [26] 17.1% | viability, T/C [27] 23.3%
active: viability, T/C [5] 3.52% | viability, T/C [6] 1.45% | viability, T/C [10] 9.63% | viability, T/C [11] 2.6% | viability, T/C [12] 2.07% | viability, T/C [16] 4.87% | viability, T/C [17] 3.05% | viability, T/C [18] 5.22% | viability, T/C [22] 3.64% | viability, T/C [23] 2.03% | viability, T/C [24] 1% | viability, T/C [28] 1.9% | viability, T/C [29] 1.17% | viability, T/C [30] 0.46%
515 nM: IC50 (second compound 1 µM)
203 nM: IC50 (second compound 3.16 µM)
523 nM: IC50 (second compound 0.316 µM)
622 nM: IC50 (second compound 0.1 µM)
